One test has as its system PaCaDD137 cells. In words: Cell viability (Cell Titer-Glo), PaCaDD137 cells. The format is cell-based. Here is the method:
Cell Viability Assays and RASGRF1 knockdown. Ba/F3 cells or PaCaDD137 cells were seeded in 96-well microtiter plates. Drug or drug vehicle was added on the same day (for Ba/F3 cells) or 24 hours after seeding (for PaCaDD137 cells). […] Luminescence was measured with a Spectramax M3 plate reader (Molecular Devices). Data analysis was performed using GraphPad Prism software.

The subject of test [1] is Ba/F3 cells expressing OCLN-RASGRF1. Nature of the test: Cell viability (Cell Titer-Glo), Ba/F3 cells expressing OCLN-RASGRF1. Format: cell-based. As to the method:
Ba F3 Transformation Assays. Ba/F3 cells were maintained in RPMI 1640 (Gibco) with heat-inactivated 10% fetal bovine serum (Gibco) and penicillin (100 units/mL)/streptomycin (100 μg/mL; Gibco) and 1 ng/mL interleukin-3 (IL-3; Gibco). cDNAs (GFP or OCLN-RASGRF1) in pLX307 were introduced into Ba/F3 cells via lentiviral transduction with 8 μg/mL polybrene and centrifugation at 2250 rpm at 37 degrees C. for 30 minutes. 24 hours later, transduced cells were selected with 1 μg/mL puromycin for at least 5 days.
Cell Viability Assays and RASGRF1 knockdown. Ba/F3 cells or PaCaDD137 cells were seeded in 96-well microtiter plates. Drug or drug vehicle was added on the same day (for Ba/F3 cells) or 24 hours after seeding (for PaCaDD137 cells). Following 4-5 days of drug exposure, cell viability was determined using the Cell Titer-Glo luminescent assay (Promega) according to the manufacturer's instructions. Luminescence was measured with a Spectramax M3 plate reader (Molecular Devices). Data analysis was performed using GraphPad Prism software.

In the case of `CS(=O)(=O)N1CCN(Cc2cc3nc(-c4cccc5[nH]ncc45)nc(N4CCOCC4)c3s2)CC1` [pictilisib], the “activity of addition of pictilisib to trametinib compared to trametinib alone” value is on record as “only a modest increase in activity” in the test on PaCaDD137 cells (100 or 500 nM pictilisib, 6 days) and “only a modest increase in activity” in test [1] (100 or 500 nM pictilisib, 4 days). Also, the “sensitivity (cell viability)” value is “not” in the test on PaCaDD137 cells (Cell Titer-Glo) and “only a modest increase in sensitivity” in test [1] (4 days, Cell Titer-Glo).
Turning to `CC(=O)Nc1cccc(-n2c(=O)n(C3CC3)c(=O)c3c(Nc4ccc(I)cc4F)n(C)c(=O)c(C)c32)c1` [trametinib], the IC50 is roughly 20 nM in the test on PaCaDD137 cells (120 h, 5 days, Cell Titer-Glo) and roughly 0.15 nM in test [1] (Mus musculus, BaF3, 96 h, 4 days exposure, Cell Titer-Glo, read-out: half maximal inhibitory concentration (IC50), cell viability).
